Among the data in article PMC12320230, “BAY11-7082 Targets RNF25 to Reverse TRIP4 Ubiquitination-dependent NF-κB Activation and Apoptosis Resistance in Renal Cell Carcinoma” (International Journal of Biological Sciences, 2025) are Kd values, retold here.

Structures are written as SMILES.

In the test the target is T1, RNF25 (Homo sapiens, UniProt Q96BH1).
T1 construct: His-RNF25 used in ubiquitination assay
T1 sequence (Q96BH1 1-459): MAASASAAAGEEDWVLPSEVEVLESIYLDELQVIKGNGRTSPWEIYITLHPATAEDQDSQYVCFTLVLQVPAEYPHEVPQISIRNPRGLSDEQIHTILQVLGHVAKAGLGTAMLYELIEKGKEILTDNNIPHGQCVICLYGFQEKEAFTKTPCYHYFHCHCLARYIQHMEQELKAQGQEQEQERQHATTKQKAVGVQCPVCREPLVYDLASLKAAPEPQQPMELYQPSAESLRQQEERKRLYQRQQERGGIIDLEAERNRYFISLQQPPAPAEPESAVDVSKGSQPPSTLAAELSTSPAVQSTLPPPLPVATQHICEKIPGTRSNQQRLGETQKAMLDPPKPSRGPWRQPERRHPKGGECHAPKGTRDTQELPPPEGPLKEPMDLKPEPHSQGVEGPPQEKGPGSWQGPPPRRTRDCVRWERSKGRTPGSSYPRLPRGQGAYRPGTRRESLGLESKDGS
Put plainly: isothermal titration calorimetry. It counts as binding.

For `Cc1ccc(S(=O)(=O)/C=C/C#N)cc1` [BAY11-7082], binding was put at a Kd of 0.95 µM.
